This note sets out measurements from patent US9586907B2, “Isothiocyanate compounds, pharmaceutical compositions, and uses thereof” (priority 2006, dated 2017).

Data set [1] has as its system Candida albicans 90028. The data set is described as follows: Anti-fungal MIC, Candida albicans 90028.
The test system of data set [2] is Candida parapsilosis 22019. Briefly: Anti-fungal MIC, Candida parapsilosis 22019.
Data set [3] concerns Aspergillus fumigatus Rit 11. Briefly: Anti-fungal MIC, Aspergillus fumigatus Rit 11.
In data set [4] the test system is Streptococcus sp., BK12235. Briefly: MIC, Streptococcus sp., BK12235.
Data set [5] concerns Cryptococcus neoformans CNH99. Briefly: Anti-fungal MIC, Cryptococcus neoformans CNH99.
In data set [6] the test system is Enterobacter cloacii BK12315. Briefly: MIC, Enterobacter cloacii BK12315.
Data set [7] deals with Aspergillus fumigatus Rit 21. Briefly: Anti-fungal MIC, Aspergillus fumigatus Rit 21.
Data set [8] has as its system Candida crusei 6258^mdr.
For data set [9], the system named is Candida albicans 90030. The data set is described as follows: Anti-fungal MIC, Candida albicans 90030.
In data set [10] the test system is Aspergillus fumigatus Rit 1. Briefly: Anti-fungal MIC, Aspergillus fumigatus Rit 1.
For data set [11], the system named is Candida albicans 5108^mdr. The data set is described as follows: Anti-fungal MIC, Candida albicans 5108^mdr.
Data set [12] deals with Candida dlabrata 250^mdr. Briefly: Anti-fungal MIC, Candida dlabrata 250^mdr.
Data set [13] deals with Bacillus cereus. Briefly: Pre-incubation of compound in MHB medium, inhibitory activity against Bacillus cereus. The format is cell-based. The note with it: initial concentration equal to the MIC value; FIG. 5. The protocol:
Preincubation of Compound 37 in Culture Medium and Its Effect on Growth-Inhibitory Activity. Compound 37 was added to liquid Muller-Hinton Broth (MHB) medium in microtiter plate to final concentration 2 mg/ml and incubated for the periods of time indicated in FIG. 5 before addition to cultures of B. cereus. After incubation for 20 h at 37° C., bacterial growth was assessed by measuring of the turbidity at 600 nm.
ITC compounds can react with amine- and thiol-containing components of the culture media with the formation of corresponding thioureas and dithiocarbamates. The effect of pre-incubation of Compound 37 in MHB medium on its inhibitory activity against Bacillus cereus was determined at an initial concentration equal to the MIC value. While no growth of the bacteria occurs upon immediate addition of the inhibitor, progressive growth is observed as a function of pre-incubation time.

Data set [14] has as its system human peritoneal macrophages infected with Mycobacterium tuberculosis H37Rv strain. Briefly: In vitro infection model, cytotoxicity. To be noted: up to 1 μg/mL; Rifampicin control.
In data set [15] the test system is Bacillus cereus. Briefly: Bactericidal/bacteriostatic activity (CFU), Bacillus cereus. Format: cell-based.
The subject of data set [16] is Staphylococcus aureus. Briefly: Bactericidal/bacteriostatic activity (CFU), Staphylococcus aureus. The format is cell-based. The note with it: 1 to 2 hours, FIG. 2B.
In data set [17] the test system is Candida crusei 6258^mdr. Briefly: microbe, parasite or virus in culture. The note with it: read-out: Anti-Fungal Activity (MIC).
A short description of data set [18]: In vivo tolerance in mice. The note with it: highest dose, 50 mg/kg.
Data set [19] has as its system human acute monocytic leukemia cells (THP1 cells). Briefly: Growth of THP1 cells, MTT metabolic assay. Format: cell-based. The note with it: Homo sapiens, THP-1, 24 h, read-out: drop in cell viability. The protocol:
THP1 cells were either mock-treated (DMSO vehicle alone), or treated with increasing doses of new compounds 37 and 45, from 0 to 32 μg/mL. Cells were incubated in the presence of compound for 24 hours, and subsequently were assayed for total cell viability using an MTT, metabolic assay.
(In general: Formazan colour is commonly taken as a measure of viable cells.)

Data set [20] has as its system Mycobacterium tuberculosis H37Rv strain. The data set is described as follows: In vitro infection model, bacterial growth inhibition in infected macrophages. The format is cell-based. To be noted: M. tuberculosis H37Rv; up to 1 μg/mL; Rifampicin control. The text has this:
Rifampicin was used as a control for this experiment.

For data set [21], the system named is virus (92TH594). The data set is described as follows: Viral proliferation in PBMC, p24 viral antigen. The format is cell-based. To be noted: PBMC.
[22] abbreviates: Streptococcus sp., BK12235, Gram +, grown on Tryptic Soy agar medium, 24 hours.
The mark [23] stands for this setting: Enterobacter cloacii BK12315, Gram −, 24 hours of incubation.
The mark [24] stands for this setting: compound 2.5 μg/ml, added to the cells after viral infection.
[25] abbreviates: compound 2.5 μg/ml, added to the cells before viral infection.
[26] abbreviates: compound 10 μg/ml, added to the cells after viral infection.
Setting [27] is: compound 10 μg/ml, added to the cells before viral infection.

Values after ≈ are worked out from the molar mass of the structure shown.

For the compound `S=C=NCCCCCCCN=C=S` [Compound 41, S═C═N—(CH2)7—N═C═S], the “Anti-Fungal Activity (MIC)” value is 8 µg/mL in data set [1] (Candida albicans 90028); 2 µg/mL in data set [2] (Candida parapsilosis 22019); 4 µg/mL in data set [3] (Aspergillus fumigatus Rit 11); <1 µg/mL in data set [5] (Cryptococcus neoformans CNH99); 4 µg/mL in data set [7] (Aspergillus fumigatus Rit 21); 2 µg/mL in data set [8]. Also, the “Anti-Fungal Activity (MIC)” value in data set [9] (Candida albicans 90030) was <1 µg/mL; in [10] (Aspergillus fumigatus Rit 1) it was 4 µg/mL; in data set [11] (Candida albicans 5108^mdr) it was 8 µg/mL; in [12] (Candida dlabrata 250^mdr), <1 µg/mL. Besides, the figures for the MIC in data set [4] (setting [22]) and in data set [6] (setting [23]) were 1 to 2 µg/mL and >64 µg/mL, respectively.
Consider `S=C=NCc1ccc(CN=C=S)cc1` [Compound 37], for which the “effect of pre-incubation in MHB medium on inhibitory activity” value in data set [13] is listed as “decrease of inhibition potency”. Moreover, the MIC in [1] (Candida albicans, 90028, read-out: Anti-Fungal Activity (MIC)) is 0.5 µg/mL (≈ 2.27 µM); in [2] (22019, read-out: Anti-Fungal Activity (MIC)) it was 0.5 µg/mL (≈ 2.27 µM); in data set [3] (Aspergillus fumigatus, RIT11, read-out: Anti-Fungal Activity (MIC)), 0.5 µg/mL (≈ 2.27 µM); in data set [4] (Streptococcus, 24 h), < 0.5 µg/mL; in data set [5] (Cryptococcus neoformans, CNH99, read-out: Anti-Fungal Activity (MIC)), < 1 µg/mL; in data set [17] it was 0.5 µg/mL (≈ 2.27 µM). The MIC was > 64 µg/mL in data set [6] (Enterobacter, BK12315, 24 h); 0.5 µg/mL (≈ 2.27 µM) in data set [7] (Aspergillus fumigatus, RIT21, read-out: Anti-Fungal Activity (MIC)); 0.5 µg/mL (≈ 2.27 µM) in data set [9] (Candida albicans, 90030, read-out: Anti-Fungal Activity (MIC)); 0.5 µg/mL (≈ 2.27 µM) in [10] (Aspergillus fumigatus, RIT1, read-out: Anti-Fungal Activity (MIC)); 0.5 µg/mL (≈ 2.27 µM) in [11] (Candida albicans, read-out: Anti-Fungal Activity (MIC)); 0.125 µg/mL (≈ 0.567 µM) in data set [12] (Candida, 48 h, read-out: Anti-Fungal Activity (MIC)). For the same compound, the “cytotoxicity in infected macrophages” value in data set [14] was “exhibited more toxicity”. Further, the “bacterial growth at 20 h” value in data set [15] (Compound at 4 μg/ml, data not shown) was “no bacterial growth was detected”. Moreover, the “cell viability of Bacillus cereus (CFU)” value in data set [15] (incubation 1 to 2 hours, FIG. 2A) is reported as “dramatic decrease in cell viability”. The “effect on Staphylococcus aureus cultures” value in [16] is “bacteriostatic effect”. For the same compound, the “toxicity in treated mice” value in data set [18] is recorded as “no toxicity was observed”. Further, in data set [19], the cytotoxicity at 8 µg/mL is ~25%. For the same compound, the “growth inhibitory activity in infected macrophages” value in [20] was “gave similar results”. Moreover, the P24 values stood at 760 pg/mL in data set [21] (setting [24]), 210 pg/mL in [21] (setting [25]), 340 pg/mL in [21] (setting [26]) and 0 pg/mL in data set [21] (setting [27]).
As for `S=C=NCCCCCCCCN=C=S` [Compound 42, S═C═N—(CH2)8—N═C═S], the “cytotoxicity in infected macrophages” value in data set [14] is reported as “exhibited more toxicity”. In addition, the MIC in data set [4] (setting [22]) was found to be 2 µg/mL (≈ 8.76 µM); in data set [6] (setting [23]), 64 µg/mL (≈ 280 µM). Moreover, the “toxicity in treated mice” value in [18] is listed as “no toxicity was observed”. In [20], the “growth inhibitory activity in infected macrophages” value is on record as “gave similar results”. Also, the P24 values in data set [21] (setting [24]) is 630 pg/mL; in data set [21] (setting [25]) it was 220 pg/mL; in data set [21] (setting [26]), 700 pg/mL; in data set [21] (setting [27]), 0 pg/mL.
